From patent US9956232B2, “Dialkyl-phosphinoyl-alkane (Dapa) compounds and compositions for treatment of lower gastrointestinal tract disorders” (priority 2016, dated 2018) come the findings set out here.

Several values for one entry are separate records, joined by “and”; a condition that tells them apart may be missing. Equal entries are not always repeated.

Data set [1] deals with isolated mouse vagus. The experiment in a line: Capsaicin-induced depolarization of the isolated vagus nerve. The settings on record: data also shown in U.S. Ser. No. 14/544,042. From the text: An isolated vagus nerve model was developed at Imperial College, London, U.K. [Birrell et al. TrpA1 agonists evoke coughing in guinea pig and human volunteers. Amer. J. respiratory and critical care medicine 180, 1042-7, 2009; Patel, H. J. et al. Inhibition of guinea-pig and human sensory nerve activity and the cough reflex in guinea-pigs by cannabinoid (CB2) receptor activation. Brit. J. Pharmacol. 140, 261-8, 2003]. In this in vitro assay, segments of the mouse vagus nerve are placed on a platform and the electrical activity is recorded after topical application of capsaicin. Capsaicin is a known irritant that elicits pain when it is applied to the skin and it will depolarize the isolated vagus. […] The similar effect of DAPA-2-5 in this test system was published in U.S. Ser. No. 14/55,042. Briefly, segments of vagus nerve, caudal to the nodose ganglion, were removed from mice with fine forceps and segments placed in oxygenated Krebs solution and bubbled with 95% O2/5% CO2. The desheathed nerve trunk was mounted in a ‘grease-gap’ recording chamber and constantly superfused with Krebs solution with a flow rate of approximately 2 mL/min, and the electrical activity of the nerve monitored with electrodes. The temperature of the perfusate was kept constant at 37° C. by a water bath. Nerve depolarizations were induced by superfusion of the nerve with capsaicin (1 μM). After two reproducible depolarization responses to capsaicin, DIPA-1-7 was applied at 1 mg/mL for 10 minutes in the perfusate followed by capsaicin.

Data set [2] concerns heat-induced edema in the anesthetized rat paw. Briefly: Heat-induced edema in the anesthetized rat paw. Particulars: 20 mg/mL, 0.3 mL per paw, 30 min before 58° C. water 1 min; relative to contralateral paw. The class given is in vivo. From the text: Inflammation is defined as the reaction of vascularized living tissue to local injury [Cotran, R S. 1989. Inflammation and repair. In Robbins: Pathologic Basis of Disease, ed. S. L. Robbins, R. S. Cotran, V. Kumar, 2:39-86. Philadelphia: Saunders. 4th ed.]. The characteristic signs of inflammation are redness, swelling, heat, and pain (and loss of function). The anti-inflammatory properties of the DAPA compounds were studied in a model of heat-induced vascular leakage [Wei et al. Method of inhibiting inflammatory response. U.S. Pat. No. 4,801,612; Wei et al., Anti-inflammatory peptide agonists. Annual Review Pharmacol Toxicol. 33:9-108, 1993]. When the paws of pentobarbital-anesthetized rats (200 to 300 g body weight) are immersed in 58° C. water for 1 min, the normal paw volume of about 1.8 mL was increased by ˜88% within 30 min, the swelling being due to an increase in water content of the paw.
Test compounds were dissolved in 20% water-80% R-1,2-propanediol at 20 mg/mL. The solutions were applied to the paw skin of pentobarbital-anesthetized rats (200 to 300 g body weight) at 0.3 mL per paw, using a syringe attached to a blunt 21 gauge needle covered at its tip with a piece of polyethylene 60 tubing. After distributing the solution over the paw, the paw was tightly enclosed in a plastic finger cut from a disposable glove. The contralateral paw [control] received only the vehicle. Thirty min after application, both paws were immersed in 58° C. water for 1 min. Thirty min after immersion, both paws were cut at ankle joint with scissors and weighed.
This degree of inhibition is significant for tissue protection as the injury stimulus is of supra-maximal intensity. The DAPA-2-5 effect was apparent to the untrained observer.

Data set [3] deals with Strains TA 98 and TA100. Briefly: Ames test. The format is cell-based. Particulars: TA 98 and TA100, with and without liver activation. As for the experimental part:
Preliminary toxicological studies were conducted on DAPA-2-5 and DAPA-2-7.

Data set [4] can be described thus: Repeated-dose toxicity in male rats (organ weights, histology). The format is in vivo, rat.
The subject of data set [5] is pentobarbital-anesthetized male rats. The experiment in a line: Shaking frequency (wet-dog shaking) of anesthetized rats after intravenous, perioral or topical delivery. The class given is in vivo. The settings on record: anesthetized rat. On the procedure: In experiments conducted here, test compounds were evaluated for “wet-dog shaking” as a model of cooling sensation. Using a standardized procedure, test compounds were compared in their ability to stimulate the shaking response by intravenous injection into a cannulated femoral vein, by perioral administration, and by topical delivery to the abdominal skin.
Each rat was given two injections with a 30 min interval. […] Shaking frequency was counted for 15 min after injection. Shaking was observed immediately after i.v. injection and at least 78% of the total shakes occurred in the first 5 min after injection. The response in the second trial was at least as robust in the first trial, showing the lack of desensitization.
Test compounds were dissolved in saline and administered by oral gavage to pentobarbital-anesthetized male albino rats at 20 mg/kg at a volume of 0.1 mL/100 g body weight [N=3 to 4 rats per compound]. Shaking was counted over a 40 min period and recorded at 10-min intervals.
For topical application of DAPA, the abdominal skin of the anesthetized rat was shaved and 20 μL of the pure DAPA was applied with a micropipette onto a ˜1 cm diameter circle of skin, enclosed with a ring of cream [Baby cream “Nevskaya kosmetika Detskyi” Nevskaya Kosmetika Inc., Saint-Petersburg 192029], as shown in FIG. 5D. The number of shakes was counted for 1 hr after application.

On to `CCCCCP(=O)(C(C)CC)C(C)CC` (stereo not drawn) [DAPA-2-5, 1-Di(sec-butyl) phosphinoyl-pentane], for which the “inhibition of capsaicin-induced depolarization” value in data set [1] (TRPM8 knock-out mouse) is given as “did not inhibit”. The “percent inhibition of capsaicin-induced depolarization” value in data set [1] (isolated normal mouse vagus) came out at 60%. Moreover, in data set [2], the “Inhibition of Heat Edema (±S.E.M.)” value is 12.9% and 12.9 ± 2.5 %. Further, in data set [3], the “mutagenicity in the Ames test” value is listed as “Neither of these compounds was mutagenic”. The “organ weights and histology vs vehicle” value was “no statistical difference in organ weights or in histology” in data set [4] (20 mg/kg perioral by gavage for 7 days, rats) and “no statistical difference in organ weights or in histology” in data set [4] (via drinking water, 41 mg/kg body weight/day for 40 days, male rats). The “Shaking frequency, Intravenous” value in data set [5] (2 mg/kg i.v., 2nd trial, counted for 15 min) worked out at 20 ± 2 shakes. Moreover, the “Shaking frequency, Perioral” value in data set [5] (20 mg/kg by oral gavage, counted for 40 min) is 4 shakes and 4 ± 1 shakes. In data set [5] (20 μL pure compound on shaved abdominal skin, counted for 1 hr), the “Shaking frequency, Topical” value came to 0 shakes.
